Experimental data: patent US8663632B1, “Compositions and methods for selectively targeting cancer cells using a thiaminase compound” (University of Kentucky Research Foundation, priority 2008, dated 2014)

Tested on: GRP78 and UPR pathway proteins in breast cancer cell lines
Assay: Immunoblot analysis of energy and UPR pathway proteins
Format: cell-based, human
Settings: tunicamycin 5 μg/ml, thapsigargin 1 μM; all four breast cancer cell lines
Experimental: Cells were treated with thiaminase or anti-cancer agent for the indicated times and washed with ice-cold PBS. Cells were lysed with a triple-detergent lysis buffer (50 mM Tris pH8.0, 150 mM NaCl, 1% NP-40, 0.5% DOC, 0.1% SDS, 0.02% sodium azide and protease inhibitors). Equal amounts of protein were loaded into each well and separated by 10% SDS-PAGE gel, followed by transfer onto nitrocellulose membranes. The membranes were blocked, incubated with the indicated primary antibodies at 4° C. overnight, and the appropriate horseradish peroxidase-conjugated secondary antibody was added for 1 hour at room temperature. Immunoblots were developed by use of the enhanced chemiluminescence (ECL) detection system (Pierce, Rockford, Ill.) according to the manufacturer's protocol and autoradiography. All of the primary antibodies were purchased from Cell Signaling Technologies (Danvers, MA). The secondary antibodies were purchased from Sigma (St. Louis, Mo.). An anti-β-actin antibody was used as a control for protein loading.

Compound: C/C=C(/C)C(=O)O[C@H]1C(C)=C2[C@H]([C@@H]1OC(=O)CCCCCCC)[C@@](C)(OC(C)=O)C[C@H](OC(=O)CCC)[C@@]1(O)[C@H]2OC(=O)[C@@]1(C)O [thapsigargin]
- GRP78 induction: marked induction

Compound: tunicamycin
- GRP78 induction: marked induction
